Source: the supplement of paper PMC10307832

Assays:
Assay in all cases: relative viability (nuclei count vs DMSO), 5 days (fraction); higher = more cells survive
BMX-IN-1 + Dasatinib = compound: C=CC(=O)Nc1cc(-n2c(=O)ccc3cnc4ccc(-c5ccc(NS(C)(=O)=O)cc5)cc4c32)ccc1C [BMX-IN-1] + Cc1nc(Nc2ncc(C(=O)Nc3c(C)cccc3Cl)s2)cc(N2CCN(CCO)CC2)n1 [Dasatinib] (partner 0.075 µM)
In short: (§1)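 A single step with final 0.05% Triton X-100, 1% formaldehyde and 1 ug/ml Hoechst fixed the cells and stained nuclei 5 days after treatment. Lung cancer cell lines in 1536-well plates had been treated by pin tool the day after seeding with one drug alone or a fixed anchor-drug dose plus five library-drug doses (not always all listed) in √10 steps, and nuclei were counted on 4× images. Relative viability is the ratio of nuclei in treated wells to nuclei in vehicle wells, taken as the median of duplicate plates.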

Ibrutinib + Luminespib = compound: C=CC(=O)N1CCC[C@@H](n2nc(-c3ccc(Oc4ccccc4)cc3)c3c(N)ncnc32)C1 [Ibrutinib] + CCNC(=O)c1noc(-c2cc(C(C)C)c(O)cc2O)c1-c1ccc(CN2CCOCC2)cc1 [Luminespib] (partner 0.01 µM)
In short: as §1

BMX-IN-1 + Trametinib = compound: C=CC(=O)Nc1cc(-n2c(=O)ccc3cnc4ccc(-c5ccc(NS(C)(=O)=O)cc5)cc4c32)ccc1C [BMX-IN-1] + CC(=O)Nc1cccc(-n2c(=O)n(C3CC3)c(=O)c3c(Nc4ccc(I)cc4F)n(C)c(=O)c(C)c32)c1 [Trametinib] (partner 0.02 µM)
In short: as §1

Ibrutinib + Dasatinib = compound: C=CC(=O)N1CCC[C@@H](n2nc(-c3ccc(Oc4ccccc4)cc3)c3c(N)ncnc32)C1 [Ibrutinib] + Cc1nc(Nc2ncc(C(=O)Nc3c(C)cccc3Cl)s2)cc(N2CCN(CCO)CC2)n1 [Dasatinib] (partner 0.075 µM)
In short: as §1

Cell Line: SK-MES-1
- relative viability (BMX-IN-1 + Dasatinib; first compound 0.02 µM): 0.43
- relative viability (BMX-IN-1 + Dasatinib; first compound 0.2 µM): 0.317
- relative viability (BMX-IN-1 + Dasatinib; first compound 0.6325 µM): 0.337
- relative viability (BMX-IN-1 + Dasatinib; first compound 2 µM): 0.34
- relative viability (Ibrutinib + Luminespib; first compound 0.005 µM): 0.619
- relative viability (Ibrutinib + Luminespib; first compound 0.01581 µM): 0.66
- relative viability (Ibrutinib + Luminespib; first compound 0.05 µM): 0.77
- relative viability (Ibrutinib + Luminespib; first compound 0.1581 µM): 0.842
- relative viability (Ibrutinib + Luminespib; first compound 0.5 µM): 0.443
- relative viability (BMX-IN-1 + Trametinib; first compound 0.02 µM): 0.603
- relative viability (BMX-IN-1 + Trametinib; first compound 0.2 µM): 0.542
- relative viability (BMX-IN-1 + Trametinib; first compound 0.6325 µM): 0.561
- relative viability (BMX-IN-1 + Trametinib; first compound 2 µM): 0.537
- relative viability (Ibrutinib + Dasatinib; first compound 0.005 µM): 0.281
- relative viability (Ibrutinib + Dasatinib; first compound 0.01581 µM): 0.211
- relative viability (Ibrutinib + Dasatinib; first compound 0.05 µM): 0.194
- relative viability (Ibrutinib + Dasatinib; first compound 0.1581 µM): 0.38
- relative viability (Ibrutinib + Dasatinib; first compound 0.5 µM): 0.178
